Results: EPA's ToxRefDB 2

Key:
[1] = tested on: rat; details: Subchronic oral toxicity in rodents, sprague dawley, Gavage/Intubation, dose end: 90 day, group: systemic
[2] = tested on: rat; details: Sub-acute repeat dose toxicity, sprague dawley, Oral, Gavage/Intubation, dose end: 10 day, group: systemic
[3] = tested on: rat; details: Subchronic oral toxicity in rodents, other, Feed, dose end: 13 week, group: systemic
[4] = tested on: mouse; details: Subchronic dermal toxicity, cd1, Topical, dose end: 49 day, group: systemic
[5] = tested on: rat; details: Subchronic oral toxicity in rodents, sprague dawley, Gavage/Intubation, dose end: 13 week, group: systemic
[6] = tested on: rat; details: Prenatal developmental toxicity study, sprague dawley, Dermal, Topical, dose end: 15 GD, group: maternal
[7] = tested on: rat; details: Sub-acute repeat dose toxicity, fischer, Oral, Water, dose end: 14 day, group: systemic
[8] = tested on: mouse; details: Combined chronic toxicity/carcinogenicity; b6c3f1; Oral; Water; dose end: 105 week; group: systemic; systemic / in life observation / body weight / body weight
[9] = tested on: mouse; details: Sub-acute repeat dose toxicity, b6c3f1, Oral, Water, dose end: 14 day, group: systemic
[10] = tested on: rat; details: Subchronic oral toxicity in rodents, fischer, Water, dose end: 14 week, group: systemic
[11] = tested on: rat; details: Prenatal developmental toxicity study, sprague dawley, Oral, Gavage/Intubation, dose end: 15 GD
[12] = tested on: rat; details: Combined chronic toxicity/carcinogenicity, fischer, Oral, Water, dose end: 105 week, group: systemic
[13] = tested on: mouse; details: Subchronic oral toxicity in rodents, b6c3f1, Water, dose end: 13 week
[14] = tested on: rat; details: Sub-acute repeat dose toxicity, sprague dawley, Oral, Gavage/Intubation, dose end: 28 day, group: systemic
[15] = tested on: rat; details: Neurotoxicity screening battery, other, Oral, Feed, dose end: 90 day, group: cannot be grouped
[16] = tested on: rat; details: Sub-acute repeat dose toxicity; other; Oral; Feed; dose end: 28 day; group: systemic; systemic / clinical chemistry / glucose / glucose + systemic / in life observation / body weight / body weight + systemic / in life …
[17] = tested on: rat; details: Prenatal developmental toxicity study, sprague dawley, Dermal, Topical, dose end: 15 GD
[18] = tested on: mouse; details: Sub-acute repeat dose toxicity, b6c3f1, Oral, Feed, dose end: 28 day, group: systemic
[19] = tested on: rat; details: Combined chronic toxicity/carcinogenicity; sprague dawley; Oral; Feed; dose end: 2 year; group: systemic; systemic / in life observation / body weight / body weight + systemic / in life observation / body weight / body weight gain + systemic / in…
[20] = tested on: rat; details: Prenatal developmental toxicity study, sprague dawley, Dermal, Topical, dose end: 15 GD, group: maternal; remark: listed apart in the source
[21] = tested on: dog; details: Subchronic oral toxicity in nonrodent, beagle, Feed, dose end: 13 week, group: systemic
[22] = tested on: mouse; details: Subchronic oral toxicity in rodents, b6c3f1, Feed, dose end: 90 day, group: systemic, systemic / organ weight / liver / absolute + systemic / organ weight / liver / relative to body weight + systemic / organ weight / liver / …
[23] = tested on: mouse; details: Combined chronic toxicity/carcinogenicity, b6c3f1, Oral, Feed, dose end: 18 month, group: systemic
[24] = systemic / clinical chemistry / alkaline phosphatase (alp/alk) / alkaline phosphatase (alp/alk) + systemic / clinical chemistry / calcium / …
[25] = systemic / pathology microscopic / liver / inflammation + systemic / clinical chemistry / aspartate aminotransferase (ast/sgot) / aspartate …
[26] = systemic / clinical chemistry / cholesterol / cholesterol + systemic / in life observation / body weight / body weight + systemic / organ …
[27] = systemic / hematology / erythrocyte (rbc) count differential / erythrocyte (rbc) + systemic / in life observation / body weight / body …
[28] = systemic / urinalysis / ketones / ketones
[29] = systemic / in life observation / clinical signs / erythema + systemic / pathology microscopic / skin / edema
[30] = systemic / in life observation / clinical signs / erythema + systemic / pathology microscopic / skin / edema + systemic / in life …
[31] = systemic / organ weight / kidney / relative to body weight + systemic / organ weight / liver / absolute + systemic / organ weight / liver / …
[32] = systemic / in life observation / body weight / body weight + systemic / in life observation / clinical signs / [other] + systemic / in life …
[33] = systemic / in life observation / body weight / body weight + systemic / in life observation / clinical signs / red or crusty deposits around…
[34] = systemic / in life observation / body weight / body weight + systemic / in life observation / body weight / body weight gain
[35] = systemic / in life observation / body weight / body weight + systemic / in life observation / body weight / body weight gain + systemic / in…
[36] = systemic / in life observation / body weight / body weight gain + systemic / organ weight / liver / absolute + systemic / organ weight / …
[37] = systemic / clinical chemistry / bile acids / bile acids + systemic / in life observation / body weight / body weight + systemic / in life …
[38] = systemic / in life observation / body weight / body weight + systemic / in life observation / body weight / body weight gain + systemic / …
[39] = group: developmental, systemic / in life observation / body weight / fetal weight
[40] = group: maternal, systemic / in life observation / clinical signs / ataxia + systemic / in life observation / clinical signs / lethargy + systemic / in life …
[41] = systemic / pathology microscopic / kidney / hyperplasia + systemic / pathology microscopic / kidney / nephropathy + systemic / in life …
[42] = group: maternal, reproductive / reproductive performance / estrous cycle / length
[43] = group: systemic, systemic / in life observation / clinical signs / dehydration + systemic / in life observation / clinical signs / feces, discoloration + …
[44] = group: systemic, systemic / in life observation / water consumption / water consumption
[45] = systemic / clinical chemistry / phosphorus / phosphorus + systemic / clinical chemistry / bilirubin / total bilirubin + systemic / pathology…
[46] = systemic / pathology gross / uterus / fluid contents
[47] = group: developmental, developmental / developmental malformation / bone / absent + developmental / developmental malformation / bone / fused + developmental / …
[48] = group: maternal, reproductive / reproductive performance / resorptions / resorptions + systemic / in life observation / body weight / body weight gain + …
[49] = group: maternal, systemic / in life observation / clinical signs / desquamation
[50] = systemic / pathology microscopic / kidney / hypertrophy
[51] = systemic / pathology microscopic / kidney / hypertrophy + systemic / in life observation / mortality / mortality
[52] = reproductive / reproductive performance / aborted / aborted + reproductive / reproductive performance / resorptions / resorptions + systemic…
[53] = systemic / in life observation / clinical signs / desquamation + systemic / in life observation / clinical signs / urine, discoloration
[54] = systemic / hematology / platelet / platelet
[55] = systemic / hematology / platelet / platelet + systemic / in life observation / body weight / body weight gain + systemic / clinical …
[56] = systemic / pathology microscopic / liver / hepatocellular adenoma + systemic / pathology microscopic / liver / hepatocellular carcinoma + …

## Clc1cccc(Cl)c1 [1,3-Dichlorobenzene]
[1]; [24]
  LOAEL: > 588 mg/kg/day
  NOAEL: ≥ 588 mg/kg/day
[1]; [25]
  LEL: 9 mg/kg/day
  NEL: < 9 mg/kg/day
[2]; systemic / clinical chemistry / cholesterol / cholesterol + systemic / in life observation / body weight / body weight + systemic / in life …
  NEL: 37 mg/kg/day
[2]; [26]
  LOAEL: > 735 mg/kg/day
  NOAEL: ≥ 735 mg/kg/day
[2]; systemic / organ weight / liver / nos + systemic / pathology microscopic / liver / necrosis
  LEL: 147 mg/kg/day

## CC(=O)CCc1ccc(O)cc1 [4-(4-Hydroxyphenyl)butan-2-one]
[3]; [27]
  LOAEL: > 678 mg/kg/day
  NOAEL: ≥ 678 mg/kg/day
[3]; [28]
  LEL: 65 mg/kg/day
  NEL: < 65 mg/kg/day

## Cc1cc(O)cc(C)c1Cl [4-Chloro-3,5-dimethylphenol]
[4]; [29]
  LOAEL: 213 mg/kg/day
  NOAEL: < 213 mg/kg/day
[4]; [30]
  LEL: 213 mg/kg/day
  NEL: < 213 mg/kg/day
[5]; systemic / in life observation / body weight / body weight gain + systemic / in life observation / clinical signs / salivation + systemic / …
  LEL: 1250 mg/kg/day
[5]; systemic / in life observation / clinical signs / salivation
  NEL: 25 mg/kg/day
[5]; [31]
  LOAEL: 2500 mg/kg/day
  NOAEL: 1250 mg/kg/day

## c1ccc2c(c1)Oc1ccccc1[As]2O[As]1c2ccccc2Oc2ccccc21 [10,10'-Oxybisphenoxarsine]
[6]; [32]
  LOAEL: > 30 mg/kg/day
  NOAEL: ≥ 30 mg/kg/day
[6]; [33]
  LEL: 0.3 mg/kg/day
  NEL: < 0.3 mg/kg/day

## CC(CO)OC(C)CO.CC(O)COCC(C)O (centres undefined) [Dipropylene glycol]
[7]; [34]
  LOAEL: 11100 mg/kg/day
[7]; [35]
  NOAEL: 5420 mg/kg/day
[7]; systemic / organ weight / liver / absolute + systemic / organ weight / liver / relative to body weight
  LEL: 2650 mg/kg/day
[7]; systemic / organ weight / liver / absolute + systemic / organ weight / liver / relative to body weight + systemic / in life observation / …
  NEL: 1450 mg/kg/day
[8]
  LEL: 1950 mg/kg/day
  LOAEL: 1950 mg/kg/day
  NEL: 1040 mg/kg/day
  NOAEL: 1040 mg/kg/day
[9]; systemic / in life observation / body weight / body weight gain
  LOAEL: 10700 mg/kg/day
[9]; [36]
  LEL: 10700 mg/kg/day
  NOAEL: 5330 mg/kg/day
[9]; systemic / in life observation / clinical signs / abnormal gait + systemic / in life observation / clinical signs / emaciation + systemic / …
  NEL: 5330 mg/kg/day
[10]; [37]
  LEL: 425 mg/kg/day
  NEL: < 425 mg/kg/day
[10]; [38]
  LOAEL: 8950 mg/kg/day
  NOAEL: 3340 mg/kg/day
[11]; [39]
  LEL: 5000 mg/kg/day
  LOAEL: > 5000 mg/kg/day
  NEL: 2000 mg/kg/day
  NOAEL: ≥ 5000 mg/kg/day
[11]; [40]
  LEL: 2000 mg/kg/day
  LOAEL: > 5000 mg/kg/day
  NEL: 800 mg/kg/day
  NOAEL: ≥ 5000 mg/kg/day
[12]; systemic / pathology microscopic / kidney / hyperplasia + systemic / pathology microscopic / kidney / nephropathy
  LOAEL: 470 mg/kg/day
[12]; [41]
  NEL: 115 mg/kg/day
  NOAEL: 115 mg/kg/day
[12]; systemic / pathology microscopic / kidney / hyperplasia + systemic / pathology microscopic / kidney / nephropathy + systemic / pathology …
  LEL: 470 mg/kg/day
[13]; [42]
  LEL: 14700 mg/kg/day
  LOAEL: > 14700 mg/kg/day
  NEL: 7430 mg/kg/day
  NOAEL: ≥ 14700 mg/kg/day
[13]; [43]
  LOAEL: > 11000 mg/kg/day
  NOAEL: ≥ 11000 mg/kg/day
[13]; [44]
  LEL: 715 mg/kg/day
  NEL: < 715 mg/kg/day

## O=C([O-])CNCO.[Na+] [Glycine, N-(hydroxymethyl)-, monosodium salt]
[14]; [45]
  LOAEL: 640 mg/kg/day
  NOAEL: 160 mg/kg/day
[14]; [46]
  LEL: 40 mg/kg/day
  NEL: < 40 mg/kg/day

## CN1CCCC1=O [N-Methyl-2-pyrrolidone]
[15]; [34]
  LOAEL: 433 mg/kg/day
[15]; [35]
  LEL: 433 mg/kg/day
  NEL: 169 mg/kg/day
  NOAEL: 169 mg/kg/day
[16]
  LEL: 1230 mg/kg/day
  LOAEL: 1230 mg/kg/day
  NEL: 429 mg/kg/day
  NOAEL: 429 mg/kg/day
[17]; [47]
  LEL: 750 mg/kg/day
  LOAEL: > 750 mg/kg/day
  NEL: 237 mg/kg/day
  NOAEL: ≥ 750 mg/kg/day
[17]; [48]
  LOAEL: > 750 mg/kg/day
  NOAEL: ≥ 750 mg/kg/day
[17]; [49]
  LEL: 75 mg/kg/day
  NEL: < 75 mg/kg/day
[18]; [50]
  LEL: 2130 mg/kg/day
  LOAEL: 2130 mg/kg/day
[18]; [51]
  NEL: 720 mg/kg/day
  NOAEL: 720 mg/kg/day
[19]
  LEL: 678 mg/kg/day
  LOAEL: > 678 mg/kg/day
  NEL: 207 mg/kg/day
  NOAEL: ≥ 678 mg/kg/day
[20]; [52]
  LOAEL: > 2500 mg/kg/day
  NOAEL: ≥ 2500 mg/kg/day
[20]; [53]
  LEL: 500 mg/kg/day
  NEL: < 500 mg/kg/day
[21]; [54]
  LEL: 25 mg/kg/day
  NEL: < 25 mg/kg/day
[21]; [55]
  LOAEL: > 250 mg/kg/day
  NOAEL: ≥ 250 mg/kg/day
[22]
  LEL: 619 mg/kg/day
  LOAEL: 619 mg/kg/day
  NEL: 277 mg/kg/day
  NOAEL: 277 mg/kg/day
[23]; systemic / organ weight / liver / absolute + systemic / organ weight / liver / relative to body weight + systemic / pathology microscopic / …
  LEL: 173 mg/kg/day
[23]; [56]
  LOAEL: > 1090 mg/kg/day
  NEL: 89 mg/kg/day
  NOAEL: ≥ 1090 mg/kg/day
